Results: patent EP4790048A1, “S1PR4 REGULATOR COMPOUND FOR AUTOIMMUNE DISEASE TREATMENT AND APPLICATION THEREOF” (Shengyuan Zetong (Shanghai) Pharmaceutical Co., Ltd, priority 2023, dated 2025)
Read-outs that look alike come from different tables or passages of the source.

Legend:
hS1P1 = target: T1, hS1P1 (Homo sapiens, UniProt P21453); assay: Tango β-arrestin recruitment luciferase assay, Tango-hS1P1-CHO; type: cell-based; details: S1PR1; Tango-S1PR1-CHO-K1 cells; mean ± SD; read-out: EC50
T1 construct: expressed in transfected cells; host or cells: CHO
T1 sequence (P21453 whole entry): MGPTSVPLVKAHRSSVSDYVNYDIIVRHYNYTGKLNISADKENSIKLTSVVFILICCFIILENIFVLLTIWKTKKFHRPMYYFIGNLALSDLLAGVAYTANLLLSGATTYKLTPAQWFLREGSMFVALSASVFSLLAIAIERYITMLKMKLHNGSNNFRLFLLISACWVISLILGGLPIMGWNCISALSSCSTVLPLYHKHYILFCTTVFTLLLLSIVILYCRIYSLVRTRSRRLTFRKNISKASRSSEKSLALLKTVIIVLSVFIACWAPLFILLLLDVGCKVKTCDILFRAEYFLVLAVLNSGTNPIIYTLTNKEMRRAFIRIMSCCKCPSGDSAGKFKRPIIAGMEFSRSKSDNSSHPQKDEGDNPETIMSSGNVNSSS
Summary of the method: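 CHO Tango cells (receptor–V2 tail–TEV/tTA fusion, β-arrestin 2–TEV, UAS-luciferase reporter) plated overnight (20 h) at 37°C, then treated 20 h with compounds, top final 45 µM, 9 five-fold dilutions, triplicates. Luciferase luminescence read; BAF-312 positive control at 1 µM (S1PR1) or 25 µM (S1PR4).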

S1PR2 = target: T2, S1PR2 (Homo sapiens, UniProt O95136); assay: FLIPR assay, S1PR2-CHO cell line; type: cell-based; details: mean ± SD
T2 construct: expressed in transfected cells
T2 sequence (O95136 whole entry, species assumed): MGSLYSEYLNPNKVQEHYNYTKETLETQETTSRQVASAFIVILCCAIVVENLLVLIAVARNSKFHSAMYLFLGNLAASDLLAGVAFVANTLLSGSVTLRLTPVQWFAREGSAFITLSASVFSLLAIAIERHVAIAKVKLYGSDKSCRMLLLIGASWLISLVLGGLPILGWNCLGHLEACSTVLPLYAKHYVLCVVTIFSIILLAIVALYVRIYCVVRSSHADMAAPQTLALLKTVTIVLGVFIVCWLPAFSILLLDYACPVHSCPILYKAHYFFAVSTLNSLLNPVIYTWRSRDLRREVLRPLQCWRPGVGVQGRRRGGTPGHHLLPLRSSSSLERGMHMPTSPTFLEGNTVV

S1PR5 = target: T3, S1PR5 (Homo sapiens, UniProt Q9H228); assay: FLIPR assay, S1PR5-CHO cell line; type: cell-based; details: mean ± SD
T3 construct: expressed in transfected cells
T3 sequence (Q9H228 whole entry, species assumed): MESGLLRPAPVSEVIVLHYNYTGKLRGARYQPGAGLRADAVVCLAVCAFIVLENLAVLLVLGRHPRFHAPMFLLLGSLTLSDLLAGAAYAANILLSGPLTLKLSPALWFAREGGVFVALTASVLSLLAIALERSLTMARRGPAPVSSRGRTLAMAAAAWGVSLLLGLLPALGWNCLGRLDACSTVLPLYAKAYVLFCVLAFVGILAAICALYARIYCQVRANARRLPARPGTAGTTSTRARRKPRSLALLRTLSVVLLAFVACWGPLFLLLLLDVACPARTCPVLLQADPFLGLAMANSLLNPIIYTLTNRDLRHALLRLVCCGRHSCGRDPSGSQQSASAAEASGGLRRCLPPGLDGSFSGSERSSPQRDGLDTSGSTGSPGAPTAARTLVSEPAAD

SD rats = assay: MIA-induced osteoarthritis (OA) model in rats; type: in vivo; details: for gross observation of knee joint femoral condyle cartilage: Day 15 dissection, 5 rats per group
Experimental: SD rats, approximately 200 g, male. Purchased from Shanghai Bikai Animal Co., Ltd. Adaptive feeding was conducted for about 7 days.
3.1.1 Anesthesia: the rat was placed into the anesthesia box, the O2 gas source and the gas delivery pump were turned on, and the gas adjustment knob was rotated to set the ratio of O2 to isoflurane at 8:2. The anesthesia depth knob was adjusted: first the indicator was turned to 3 to induce deep anesthesia in the rat; during the subsequent surgical procedure, the indicator was adjusted to 1.5 to maintain anesthesia. The three-way valve was opened to deliver gas into both the anesthesia box and the rat anesthesia mask.
The syringe needle was inserted at a 45° angle to the plateau along the lateral side of the patellar ligament, as shown in the figure below. The Control group is injected with 50 µl of 0.9% sterile normal saline, while the other groups are injected with 50 µl of sterile normal saline containing 3 mg of MIA. After the procedure, the rat was removed, placed in a breeding cage, and irradiated with an incandescent lamp to help restore body temperature until the rat recovers from anesthesia.
The Control group was administered 5% DMSO + 35% PEG400 + 60% normal saline. The compounds were dissolved in a system consisting of 5% dimethyl sulfoxide (DMSO), 35% polyethylene glycol 400 (PEG 400), and 60% normal saline. The drug solutions were prepared on the evening one day before administration.
The rats were acclimated for 1 week and randomly divided into groups, with a total of 10 rats. The Control group was administered 5% DMSO + 35% PEG400 + 60% normal saline, while the other groups were given the test compounds dissolved in 5% DMSO + 35% PEG400 + 60% normal saline.
3.4.1. From Day 1 to Day 14 of the experiment, the rats were administered intragastrically once daily, with a gavage volume of 5 mL/kg. The Control group and Model group were given 5% DMSO + 35% PEG400 + 60% normal saline throughout the experiment, while the other groups were administered the corresponding drugs.
On Day 7 and Day14 of the experiment, behavioral and joint pain tests were performed on the rats. To minimize confounding factors, the tests were conducted 1 hour after administration at a fixed time, preventing variations in the rats' condition at different time points from affecting the experimental results. The rats were allowed to acclimate to the environment for 20 minutes before the start of the experiment. • (1) Observation of walking distance and rearing times within five minutes: the dimensions of the resin box were measured and a paper sheet of the corresponding size was prepared. 1 cm × 1 cm grids were drawn on the paper sheet. The paper sheet was sealed with a transparent tape to prevent damage from rat excrement. Then the paper sheet with 1 cm × 1 cm grids was placed into the transparent resin box, ensuring a flat bottom. A camera device was used to record the walking process and trajectory of the rat within 5 minutes, and the walking distance and rearing times of the rat were counted. • (2) Joint Pain Assessment: After fixing the rat and allowing it to calm down, its knee joint was gently bent. […] The knee joint pain severity in rats is reflected by the scores of leg withdrawal and vocalization. The joint pain assessment was performed every 5 seconds for a total of 5 times.
On Day 15 of the experiment, the rats were anesthetized, and blood was collected from their eyeballs. The serum was left to stand overnight at 4°C, centrifuged at 3600 rpm for 15 minutes at 4°C. The serum was aspirated and stored at -80°C. The rats were sacrificed by cervical dislocation. An incision was made along the knee joint on ice to remove fur, muscle, and other tissues. For each group, 5 rats were used; bilateral knee joints were dissected, and the color, roughness, and integrity of the femoral condyle surface were observed. The knee joint cartilage was then harvested and cryopreserved at -80°C. […]

[1] = DAY7, 0.3 mg/kg intragastric once daily, vs Model group
[2] = DAY7, 3 mg/kg intragastric once daily, vs Model group
[3] = DAY14, 0.3 mg/kg, vs Model group

Row | Structure (SMILES) | EC50 (hS1P1) [µM] | EC50 (S1PR2; read-out: EC50) [µM] | EC50 (S1PR5; read-out: EC50) [µM] | OARSI score (severity of knee osteoarthritis) (SD rats; 1 mg/kg, vs Model group) | OARSI score (severity of knee osteoarthritis) (SD rats; 3 mg/kg, vs Model group) | pain index (SD rats; [1]) | five-minute walking distance (SD rats; DAY7, 1 mg/kg, vs Model group) | pain index (SD rats; [2]) | five-minute walking distance (SD rats; [3]) | pain index (SD rats; DAY14, 1 mg/kg, vs Model group) | five-minute walking distance (SD rats; DAY14, 3 mg/kg, vs Model group) | pain index (SD rats; DAY14, 3 mg/kg, vs Model group) | gross observation of knee joint femoral condyle cartilage (SD rats) | Safranin O-Fast Green staining of knee joints (SD rats; vs Model group) | further results
1 | CCc1cc(/C(C)=N/OCc2ccc(-c3cnc(F)cn3)c(C)c2)ccc1CN1CC[C@H](C(=O)O)C1 [Compound 67, (S, E)-1-(2-ethyl-4-(1-(((4-(5-fluoropyrazin-2-yl)-3-methylbenzyl)oxy)imino)ethyl)benzyl)pyrrolidine-3-carboxylic acid] | 0.195 ± 0.016 | > 10 | 3.74 ± 0.221 | showed significant effects | showed significant effects | significantly decreased | increased significantly | significantly decreased | increased significantly | significantly decreased | increased significantly | significantly decreased | cartilage of most rat knee joints became smooth and bright | enhanced Safranin O staining | pain index (SD rats; DAY7, 1 mg/kg intragastric once daily, vs Model group): significantly decreased; five-minute walking distance (SD rats; DAY14, 1 mg/kg, vs Model group): increased significantly; serum IL-10 level (SD rats; Elisa, vs Model group): tended to upregulate; serum IL-17 level (SD rats; Elisa, vs Model group): tended to upregulate
2 | CCc1cc(/C(C)=N/OCc2ccc(-c3ccccc3)c(C)c2)ccc1CN1CC[C@H](C(=O)O)C1 [Compound 30] | 0.0876 ± 0.00335 | > 10 | > 10 | showed significant differences | showed significant differences | significantly decreased | increased significantly | significantly decreased | increased significantly | significantly decreased | increased significantly | significantly decreased | knee cartilage in most rats became smooth and glossy | enhanced safranin staining | EC50 (S1PR2): no agonist activity; EC50 (S1PR5): no agonist activity; OARSI score (severity of knee osteoarthritis) (SD rats; 0.3 mg/kg, vs Model group): showed significant differences; five-minute walking distance (SD rats; DAY7, 0.3 mg/kg, vs Model group): increased significantly
